Data published in patent publication US6602854B1, “Branched multimeric Apo A-I agonist compounds” (priority 1997, dated 2003).
Where a SMILES comes first, the peptide text is derived from it. Where no end group is shown, it is not given here. [ ]: non-standard residue; d: D form. Aib = CC(C)(N)C(=O)O

Columns and labels:
[1] = target: T1, LCAT (purified from human plasma) (Homo sapiens, UniProt P04180); assay: LCAT activation assay; type: biochemical; set-up: ACTIVITY (%) LCAT: concentration or dose not given beside the values; settings: for ACTIVITY (%) LCAT: LCAT activation as compared with native human ApoA-I; for LCAT activation: as compared with native ApoA-I (100%)
T1 construct: from tissue; host or cells: human plasma
T1 sequence (P04180 25-440): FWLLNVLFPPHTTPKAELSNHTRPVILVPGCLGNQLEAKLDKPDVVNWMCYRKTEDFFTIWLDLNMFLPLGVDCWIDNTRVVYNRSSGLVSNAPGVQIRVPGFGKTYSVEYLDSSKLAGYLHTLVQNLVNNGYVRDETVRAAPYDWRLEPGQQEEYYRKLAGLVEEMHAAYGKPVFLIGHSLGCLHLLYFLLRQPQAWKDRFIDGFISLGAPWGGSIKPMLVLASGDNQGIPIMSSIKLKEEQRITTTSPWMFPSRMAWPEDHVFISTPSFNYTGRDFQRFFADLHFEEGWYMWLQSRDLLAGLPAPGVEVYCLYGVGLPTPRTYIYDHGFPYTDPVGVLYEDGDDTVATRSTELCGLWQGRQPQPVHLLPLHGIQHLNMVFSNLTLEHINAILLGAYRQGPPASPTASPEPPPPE
Experimental: The peptides synthesized as described in Section 6, supra, were analyzed in vitro for their ability to activate LCAT. In the LCAT assay, substrate vesicles (small unilamellar vesicles or “SUVs”) composed of egg phophatidylcholine (EPC) or 1-Palmitoyl-2-oleyl-phosphatidyl-choline (POPC) and radiolabelled cholesterol are preincubated with equivalent masses either of peptide or ApoA-I (isolated from human plasma). The reaction is initiated by addition of LCAT (purified from human plasma). Native ApoA-I, which was used as positive control, represents 100% activation activity. “Specific activity” (i.e., units of activity (LCAT activation)/unit of mass) of the peptides can be calculated as the concentration of peptide that achieves maximum LCAT activation. For example, a series of concentrations of the peptide (e.a., a limiting dilution) can be assayed to determine the “specific activity” for the peptide—the concentration which achieves maximal LCAT activation (i.e., percentage conversion of cholesterol to cholesterol ester) at a specific timepoint in the assay (e.g., 1 hr.). When plotting percentage conversion of cholesterol at, e.g., 1 hr., against the concentration of peptide used, the “specific activity” can be identified as the concentration of peptide that achieves a plateau on the plotted curve.
The vesicles used in the LCAT assay are SUVs composed of egg phosphatidylcholine (EPC) or 1-palmitoyl-2-oleyl-phosphatidylcholine (POPC) and cholesterol with a molar ratio of 20:1. To prepare a vesicle stock solution sufficient for 40 assays, 7.7 mg EPC (or 7.6 mg POPC; 10 μmol), 78 μg (0.2 μmol) 4-^14C-cholesterol, 116 μg cholesterol (0.3 μmol) are dissolved in 5 ml xylene and lyophilized. Thereafter 4 ml of assay buffer is added to the dry powder and sonicated under nitrogen atmosphere at 4° C. Sonication conditions: Branson 250 sonicator, 10 mm tip, 6×5 minutes; Assay buffer: 10 mM Tris, 0.14 M NaCl, 1 mM EDTA, pH 7.4). The sonicated mixture is centrifuged 6 times for 5 minutes each time at 14,000 rpm (16,000×g) to remove titanium particles. The resulting clear solution is used for the enzyme assay.
For the LCAT purification, dextran sulfate/Mg^2+ treatment of human plasma is used to obtain lipoprotein deficient serum (LPDS), which is sequentially chromatographed on Phenylsepharose, Affigelblue, ConcanavalinA sepharose and anti-ApoA-I affinity chromatography, as summarized for a representative purification in TABLE IX, below: […]

[2] = Circular dichroism: degree of helicity (free, SUVs, micelles, TFE); settings: for He (%) free: percent helicity of free, unbound peptide; for He (%) SUVs: percent helicity of peptide-SUV complexes; for He (%) mics: percent helicity of peptide-micelle complexes; for He (%) TFE: percent helicity of peptide-TFE solution
In short: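 Far-UV CD (190–260 nm) at 37 °C on 5 μM peptide in 5 mM phosphate pH 7.4, either free, with EPC:Chol 20:1 SUVs (Ri 30 or 50), with lysophosphatidylcholine micelles (Ri 100), or in 90% TFE. Helicity derived from mean residue ellipticity at 222 nm or CONTIN fitting to reference spectra.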

[3] = system: lipidic vesicles (EPC/Chol 5%); assay: Fluorescence spectroscopy lipid binding; settings: for I/Io / λmax: peptide 2 μM
Experimental: The lipid binding properties of the peptides synthesized in Section 6, supra, were tested by fluorescence measurements with labeled peptides, in the present case Tryptophane (Trp or W) or Naphtylalanine (Nal). The fluorescence spectra were recorded on a Fluoromax from Spex (Jobin-Yvon) equipped with a Xenon lamp of 150 W, two monochromators (excitation and emission), a photomultiplier R-928 for detection sensitive in the red up to 850 nm and a thermoelectric magnetic stirred cell holder. Quartz Suprasil cuvettes were used for measurements in the micromolar concentration range. A device of variable slits (from 0.4 to 5 nm) allows modulation of the incident and emitted intensities according to the concentration of peptide used. The reported values are in general the average of between 2 to 4 spectra. The peptide concentration is determined by absorption spectrometry on a Philips PU 8800 usng the absorption band of the Trp (ε280 nm=5,550 M^−1cm^−1 in Tris buffer) or the Nal (ε224 nm=92,770 M^−1cm^−1 in methanol).
Fluorescence spectra of the peptides were recorded between 290 nm and 450 nm in Tris-HCl buffer (20 mM, pH=7.5), in the presence and absence of lipidic vesicles. The small unilamellar vesicles were formed after rehydration in buffer of the lyophilized phospholipids, dispersion and tip sonification under a N2 stream. The lipids used were either Egg PC/Chol. (20:1) or POPC/Chol. (20:1). The spectra were recorded at a peptide concentration of 2 μM and at a temperature of 37° C. The fluorescence reference standard in the case of Trp was N-acetyltryptophanylamide (NATA).
Lipid binding studies were done through progressive lipidic vesicle addition to the peptide in solution at 2 μM (slits:5 nm in excitation and 1.5 nm in emission). Dilution effects were taken into account for the fluorescence intensity determination. The lipid concentrations were varied from 10 to 600 μM and the molar ratio of lipid to peptide (Ri) was varied from 5 to 300. The wavelength of excitation was set at 280 nm for both Trp and Nal.
The data were directly recorded and treated by an IBM-PC linked to the spectrofluorimeter through the DM3000F software from Spex. The spectra were corrected by substraction of the solvent contribution and by application of a coefficient given by the constructor taking into account the variation of the photomultiplier response versus the wavelength.
The fluorescence spectra of the peptides were characterized by the wavelength at their maximum of fluorescence emission and by their quantum yield compared to NATA in the case of peptides labeled with a tryptophane. The process of binding to lipids was analyzed by calculating the shift of the wavelength at the maximum of fluorescence emission, (λmax), and the variation of the relative. fluorescence intensity of emission versus the lipid concentration. The relative fluorescence intensity is defined as the following ratio: (I−I0)λmax/I0λmax. I and I0 are both measured at the (λmax) corresponding to the initial free state of the peptide, i.e., without lipids. I is the intensity at a defined lipid to peptide ratio and I0 is the same parameter measured in absence of lipids. The absence of these variations is relevant of the absence of interactions of the peptides with the lipids.

| Molecule | ACTIVITY (%) LCAT [1] [%] | He (%) free [2] [%] | He (%) SUVs [2] [%] | He (%) mics [2] [%] | He (%) TFE [2] [%] | other results |
| --- | --- | --- | --- | --- | --- | --- |
| CC(=O)N1CCC[C@H]1C(=O)N[C@H](C(=O)N[C@@H](CC(C)C)C(=O)N[C@@H](CC(=O)O)C(=O)N[C@@H](CCC(=O)O)C(=O)N[C@@H](Cc1ccccc1)C(=O)N[C@@H](CCCN=C(N)N)C(=O)N[C@@H](CCC(=O)O)C(=O)N[C@@H](CCCCN)C(=O)N[C@@H](CC(C)C)C(=O)N[C@@H](CC(N)=O)C(=O)N[C@@H](CCC(=O)O)C(=O)N[C@@H](CCC(=O)O)C(=O)N[C@@H](CC(C)C)C(=O)N[C@@H](CCC(=O)O)C(=O)N[C@@H](C)C(=O)N[C@@H](CC(C)C)C(=O)N[C@@H](CCCCN)C(=O)N[C@@H](CCC(N)=O)C(=O)N[C@@H](CCCCN)C(=O)N[C@@H](CC(C)C)C(=O)N[C@@H](CCCCN)C(N)=O)C(C)C [Segrest's consensus 22-mer, reference compound] (Ac-PVLDEFREKLNEELEALKQKLK-NH2) | 10 |  |  |  |  | LCAT activation [1]: 10% |
| EWLEAFYKKVLEKLKELF [peptide 18AM4, reference compound] |  | 18 | 47 | 44 |  | LCAT activation [1]: less than 4% |
| PVLDLFRELLNELLEALOQOLO [peptide 14] | 61 | 70 | 80 | 96 |  |  |
| PVLDLFRELLNELLEAZKQKLK [peptide 10] | 79 | 60 | 70 | 87 | 71 |  |
| PVLDLFRELLNELZEALKQKLK [peptide 27] | 44 | 72 | 82 | 92 | 81 |  |
| PVLDLFRELLNLXLEALKEKLK (PVLDLFRELLNL[Aib]LEALKEKLK) [peptide 102, X is Aib; Gln-19 replaced by Glu-19] |  |  |  |  |  | LCAT activation (in words) [1]: did not activate LCAT |
| PVLDLFRELWNELLEALKQKLK [peptide 15, peptide 4 containing a Trp residue at position 10] |  | 55 | 64 |  | 68 | lipid binding (in words) [3]: very high affinity; lipid to peptide molar ratio at maximum burying of the Tryptophane residue [3]: lower than 5; maximum of the Trp emission wavelength when bound to lipidic vesicles ([3]; EPC/Chol 5% vesicles, shifted from 332 nm): 323 nm; I/Io ([3]; Lipid:Peptide Molar Ratio (Ri) 0): 0; λmax ([3]; Ri 0 (buffer, no lipid)): 332 nm; I/Io ([3]; Ri 5): 10.8; λmax ([3]; Ri 5): 323 nm; I/Io ([3]; Ri 10): 13.2; λmax ([3]; Ri 10): 323.5 nm; I/Io ([3]; Ri 30): 17.5; λmax ([3]; Ri 30): 323 nm; I/Io ([3]; Ri 100): 26.4; λmax ([3]; Ri 100): 323 nm; I/Io ([3]; Ri 200): 43.5; λmax ([3]; Ri 200): 323 nm |
| pVLDLFRELLNEGLEALKQKLK [peptide 19] | 58 |  |  |  |  |  |
| pVLDLFRELLNELLEALKQKLK [peptide 21] | 57 |  |  |  |  |  |
| pVLDLFRELLNELLEALKQKLKK [peptide 5] | 90 |  |  |  |  |  |
